From PubChem BioAssay (NCI) come the findings set out here.

Structures are written as SMILES.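 Tested at 5 concentrations; 48 h exposure; 96-well plates; endpoints linearly interpolated, else capped at highest concentration. The concentration for full growth arrest is given as TGI.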 Some results are limits rather than exact numbers.

Some test systems named below: CCRF-CEM leukemia; COLO 205 colon; DU-145 prostate; EKVX NSCLC; HCC-2998 colon; HL-60(TB) leukemia; HS 578T breast; IGROV1 ovarian; KM12 colon; MALME-3M melanoma; MDA-MB-231 breast; MDA-N; NCI-H522 lung; OVCAR-5 ovarian; OVCAR-8 ovarian; SF-295 CNS; SK-MEL-5 melanoma; SR leukemia; T-47D breast; U251 CNS.
Assay in all cases: NCI-60 cell line screen, 48 h

As for `CC1=CCC[C@]2(C)C1=CC(=O)O[C@H]2c1ccoc1`, the TGI in the assay on CCRF-CEM leukemia, in the assay on COLO 205 colon, in the assay on DU-145 prostate, in the assay with EKVX NSCLC, in the assay with HCC-2998 colon and in the assay on HL-60(TB) leukemia was over 100 µM in each case. The TGI with HS 578T breast, with IGROV1 ovarian, in the assay on KM12 colon, with MALME-3M melanoma, with MDA-MB-231 breast and with MDA-N was over 100 µM in each case. Also, the TGI in the assay on NCI-H522 lung, with OVCAR-5 ovarian, with OVCAR-8 ovarian, in the assay on SF-295 CNS, with SK-MEL-5 melanoma and in the assay on SR leukemia was over 100 µM in each case. For the same molecule, the TGI with T-47D breast and in the assay with U251 CNS was over 100 µM each time.
Regarding `COC(=O)C(Cc1c[nH]c2ccccc12)NP(=O)(O)OCC1OC(n2cc(F)c(=O)[nH]c2=O)CC1O` (stereo not drawn), the TGI in the assay with CCRF-CEM leukemia is over 59.1 µM; with COLO 205 colon, over 100 µM; in the assay on DU-145 prostate it was over 100 µM; in the assay with EKVX NSCLC, over 100 µM; in the assay on HCC-2998 colon it was over 100 µM; with HL-60(TB) leukemia it was over 100 µM. The TGI in the assay with HS 578T breast, with IGROV1 ovarian, in the assay with KM12 colon, in the assay with MALME-3M melanoma, in the assay on MDA-MB-231 breast and with MDA-N was over 100 µM in each case. Moreover, the TGI in the assay on NCI-H522 lung was over 100 µM; with OVCAR-5 ovarian it was over 100 µM; in the assay on OVCAR-8 ovarian, over 100 µM; with SF-295 CNS, over 100 µM; with SK-MEL-5 melanoma, over 100 µM; in the assay with SR leukemia, over 51.9 µM. For the same molecule, the TGI in the assay on T-47D breast and in the assay on U251 CNS was over 100 µM in each case.
For the molecule `Cc1n[nH]c(=O)n1/N=C/c1cccnc1`, the TGI in the assay with CCRF-CEM leukemia, with COLO 205 colon, in the assay on DU-145 prostate, in the assay with EKVX NSCLC, with HCC-2998 colon and in the assay with HL-60(TB) leukemia was over 100 µM each time. In addition, the TGI with HS 578T breast, with IGROV1 ovarian, in the assay with KM12 colon, with MALME-3M melanoma, with MDA-MB-231 breast and with MDA-N was over 100 µM throughout. Moreover, the TGI with NCI-H522 lung, with OVCAR-5 ovarian, in the assay with OVCAR-8 ovarian, in the assay with SF-295 CNS, in the assay on SK-MEL-5 melanoma and in the assay with SR leukemia was over 100 µM each time. The TGI in the assay on T-47D breast and with U251 CNS was over 100 µM in each case.
Consider `CC(=C(C(=O)O)C(=O)O)c1cc(-c2cccs2)cc(-c2ccc(Cl)cc2)c1O`, for which the TGI in the assay with CCRF-CEM leukemia is over 76.5 µM; in the assay with COLO 205 colon it was 44.8 µM; with DU-145 prostate, 30.6 µM; in the assay on EKVX NSCLC, 32.2 µM; with HCC-2998 colon, 38 µM; in the assay with HL-60(TB) leukemia, 46.6 µM. Further, the TGI in the assay with HS 578T breast was over 90.7 µM; with IGROV1 ovarian, 29.3 µM; in the assay on KM12 colon, 24.2 µM; in the assay with MALME-3M melanoma, 41 µM; in the assay with MDA-MB-231 breast it was 43.5 µM; with MDA-N, 31.4 µM. Moreover, the TGI in the assay on NCI-H522 lung was 33.3 µM; with OVCAR-5 ovarian, over 86.8 µM; in the assay with OVCAR-8 ovarian it was 52.8 µM; in the assay on SF-295 CNS, 46.5 µM; in the assay with SK-MEL-5 melanoma, over 52.8 µM; with SR leukemia, 37.1 µM. For the same molecule, the TGI in the assay on T-47D breast was determined as 21.3 µM; in the assay with U251 CNS, 29.3 µM.
As to `CN1CCC/C1=C1\C(=O)c2cccn2C1=O`, the TGI in the assay on CCRF-CEM leukemia, in the assay on COLO 205 colon, with DU-145 prostate, with EKVX NSCLC, with HCC-2998 colon and in the assay with HL-60(TB) leukemia was over 100 µM throughout. Besides, the TGI in the assay with HS 578T breast, with IGROV1 ovarian, in the assay with KM12 colon, in the assay on MALME-3M melanoma, in the assay on MDA-MB-231 breast and in the assay on MDA-N was over 100 µM each time. The TGI in the assay on NCI-H522 lung, with OVCAR-5 ovarian, with OVCAR-8 ovarian, in the assay with SF-295 CNS, in the assay on SK-MEL-5 melanoma and with SR leukemia was over 100 µM throughout. The TGI with T-47D breast and in the assay on U251 CNS was over 100 µM each time.
Consider `CCn1c(SCC(=O)NNC(=S)Nc2ccc(F)cc2)nc2ccccc2c1=O`, for which the TGI in the assay on CCRF-CEM leukemia, with COLO 205 colon, in the assay on DU-145 prostate, in the assay with EKVX NSCLC, in the assay on HCC-2998 colon and in the assay on HL-60(TB) leukemia was over 100 µM in each case. In addition, the TGI in the assay with HS 578T breast, with IGROV1 ovarian, in the assay with KM12 colon, in the assay with MALME-3M melanoma, in the assay on MDA-MB-231 breast and with MDA-N was over 100 µM in each case. In addition, the TGI in the assay with NCI-H522 lung, with OVCAR-5 ovarian, in the assay with OVCAR-8 ovarian, in the assay with SF-295 CNS, in the assay on SK-MEL-5 melanoma and with SR leukemia was over 100 µM each time. For the same molecule, the TGI with T-47D breast and with U251 CNS was over 100 µM in each case.
For `COC(=O)/C(C#N)=C(\Nc1ccccc1)N1CCCCC1`, the TGI with COLO 205 colon, in the assay on DU-145 prostate, with EKVX NSCLC, in the assay with HCC-2998 colon, with HL-60(TB) leukemia and in the assay on HS 578T breast was over 100 µM in each case. Moreover, the TGI in the assay on IGROV1 ovarian, in the assay with MALME-3M melanoma, in the assay with MDA-MB-231 breast, in the assay with MDA-N, in the assay on NCI-H522 lung and in the assay with OVCAR-5 ovarian was over 100 µM in each case. In addition, the TGI in the assay on OVCAR-8 ovarian, in the assay on SF-295 CNS, with SK-MEL-5 melanoma, in the assay on SR leukemia, in the assay with T-47D breast and in the assay on U251 CNS was over 100 µM each time.
